Earlier results in patent publication US20110184024A1, “Pharmaceutical Composition Containing Esomeprazole” (CTC BIO, INC., priority 2007, published 2011).

Conditions: stored for two months at 25° C./60% RH

total impurities after storage: about 1%
Structure (SMILES): COc1ccc2nc([S@@+]([O-])Cc3ncc(C)c(OC)c3C)[nH]c2c1 [esomeprazole free base, (S)-5-methoxy-2-[(4-methoxy-3,5-dimethylpyridin-2-yl)methylsulfinyl]-3H-benzoimidazole]
